Assay results from US20250051338A1, “TYK2 DEGRADERS AND USES THEREOF” (Kymera Therapeutics, Inc., priority 2021, published 2025).

Assays:
Format in all cases: cell-based
TYK2 [1] = biological target: T1, TYK2 (Homo sapiens, UniProt P29597); test: TYK2 degradation MSD assay in EBV-B cells; parameters: endogenous in cells; host or cells: EBV-B cells; details: 4 to 24 hours incubation, read-out: TYK2 MSD DC50 rating in EBV-B
Procedure, shortened: (§1)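 MSD electrochemiluminescence readout of residual TYK2 in RIPA lysates after 4–24 h compound exposure at 37° C. Dosing: 9 concentrations, 1:3 steps, top 1 to 10 μM. DC50 fitted by four-parameter inhibitor vs. response regression.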

TYK2 [2] = biological target: T1, TYK2; test: TYK2 degradation MSD assay in OCI-LY10 cells; parameters: endogenous in cells; host or cells: EBV-B cells; details: 4 to 24 hours incubation, read-out: TYK2 MSD DC50 rating in OCI-LY10
Procedure, shortened: as §1

TYK2 [3] = biological target: T1, TYK2; test: TYK2 degradation MSD assay in human PBMC cells; parameters: endogenous in cells; host or cells: human PBMC; details: 4 to 24 hours incubation, read-out: TYK2 MSD DC50 rating in human PBMC
Procedure, shortened: as §1

T1 sequence (P29597 whole entry): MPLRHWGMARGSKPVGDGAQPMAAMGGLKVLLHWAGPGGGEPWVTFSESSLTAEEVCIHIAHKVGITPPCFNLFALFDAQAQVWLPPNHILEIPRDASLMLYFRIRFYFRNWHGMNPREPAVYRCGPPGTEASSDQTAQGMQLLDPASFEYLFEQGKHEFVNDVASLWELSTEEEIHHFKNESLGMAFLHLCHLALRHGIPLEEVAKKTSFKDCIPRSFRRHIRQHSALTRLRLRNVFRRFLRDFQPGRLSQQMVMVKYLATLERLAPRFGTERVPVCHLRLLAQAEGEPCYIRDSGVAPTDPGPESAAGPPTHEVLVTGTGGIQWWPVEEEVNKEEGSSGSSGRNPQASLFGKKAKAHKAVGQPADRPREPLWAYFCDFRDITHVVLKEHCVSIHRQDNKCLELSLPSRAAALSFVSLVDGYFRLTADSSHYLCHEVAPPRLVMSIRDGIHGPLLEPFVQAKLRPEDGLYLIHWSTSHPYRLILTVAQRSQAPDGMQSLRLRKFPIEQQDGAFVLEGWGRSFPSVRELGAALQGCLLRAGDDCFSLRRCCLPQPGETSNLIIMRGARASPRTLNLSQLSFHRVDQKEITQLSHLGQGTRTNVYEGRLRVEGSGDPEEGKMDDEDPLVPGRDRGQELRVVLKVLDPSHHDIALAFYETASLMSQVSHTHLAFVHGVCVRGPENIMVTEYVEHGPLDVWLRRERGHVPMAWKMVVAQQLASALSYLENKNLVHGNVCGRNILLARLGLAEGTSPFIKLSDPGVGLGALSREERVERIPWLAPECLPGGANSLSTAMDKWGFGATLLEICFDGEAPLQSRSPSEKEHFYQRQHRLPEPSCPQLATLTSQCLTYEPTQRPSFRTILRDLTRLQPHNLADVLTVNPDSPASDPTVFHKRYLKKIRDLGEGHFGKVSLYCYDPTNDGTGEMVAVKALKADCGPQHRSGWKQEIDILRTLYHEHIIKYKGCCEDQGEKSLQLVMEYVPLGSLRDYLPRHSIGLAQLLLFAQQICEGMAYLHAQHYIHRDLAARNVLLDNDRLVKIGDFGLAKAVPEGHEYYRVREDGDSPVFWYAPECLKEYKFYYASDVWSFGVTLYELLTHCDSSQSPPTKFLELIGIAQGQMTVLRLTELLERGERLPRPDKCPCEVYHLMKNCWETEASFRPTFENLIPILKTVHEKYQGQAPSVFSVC

Row | SMILES | DC50 (TYK2 [1]) | DC50 (TYK2 [2]) | DC50 (TYK2 [3])
1 | CNc1cc(Nc2cccc(-c3ccc(CN4CCC(C#Cc5ccc6c(c5)n(C)c(=O)n6C5CCC(=O)NC5=O)CC4)cn3)c2)nn2c(C(=O)N[C@@H]3C[C@@H]3F)cnc12 (stereo partly drawn) [Example K436] | > 100 nM | < 1 nM | > 100 nM
2 | CNc1cc(Nc2cccn(-c3ccc(CNCc4ccc(N5CCC(N6CCC(c7ccc8c(c7)n(C)c(=O)n8C7CCC(=O)NC7=O)C6)CC5)cc4)cn3)c2=O)nn2c(C(=O)N[C@@H]3C[C@@H]3F)cnc12 (stereo partly drawn) [Example K437] | > 100 nM | < 1 nM | > 100 nM
3 | CNc1cc(Nc2cccn(-c3ccc(C(=O)N(C)CCCOC4CCN(c5ccc6c(c5)n(C)c(=O)n6C5CCC(=O)NC5=O)CC4)cn3)c2=O)nn2c(C(=O)N[C@@H]3C[C@@H]3F)cnc12 (stereo partly drawn) [Example K438] | > 100 nM | 1 to 10 nM | > 100 nM
4 | CNc1cc(Nc2cccn(-c3ccc(C(=O)N(C)C4CCN(c5ccc(-c6ccc7c(c6)n(C)c(=O)n7C6CCC(=O)NC6=O)cc5)C4)cn3)c2=O)nn2c(C(=O)N[C@@H]3C[C@@H]3F)cnc12 (stereo partly drawn) [Example K439] | > 100 nM | < 1 nM | > 100 nM
5 | CNc1cc(Nc2cccn(-c3ccc(C(=O)N4CCN(CCOc5cccc(-c6ccc7c(c6)n(C)c(=O)n7C6CCC(=O)NC6=O)c5)CC4)cn3)c2=O)nn2c(C(=O)N[C@@H]3C[C@@H]3F)cnc12 (stereo partly drawn) [Example K440] | > 100 nM | < 1 nM | > 100 nM
6 | CNc1cc(Nc2cccn(-c3ccc(C(=O)N4CCC5(CCN(c6ncc(C#Cc7ccc8c(c7)n(C)c(=O)n8C7CCC(=O)NC7=O)cn6)C5=O)C4)cn3)c2=O)nn2c(C(=O)N[C@@H]3C[C@@H]3F)cnc12 (stereo partly drawn) [Example K441] | > 100 nM | < 1 nM | > 100 nM
7 | CNc1cc(Nc2cccn(-c3ccc(C(=O)N4CCC(OC5CC(c6cccc7c6n(C)c(=O)n7C6CCC(=O)NC6=O)C5)CC4)cn3)c2=O)nn2c(C(=O)N[C@@H]3C[C@@H]3F)cnc12 (stereo partly drawn) [Example K442] | > 100 nM | < 1 nM | > 100 nM
8 | CNc1cc(Nc2cccn(-c3ccc(C(=O)NC4CCC(C(=O)N5CCC6(CN(CC#Cc7ccc8c(c7)n(C)c(=O)n8C7CCC(=O)NC7=O)C6)C5)CC4)cn3)c2=O)nn2c(C(=O)N[C@@H]3C[C@@H]3F)cnc12 (stereo partly drawn) [Example K444] | 1 to 10 nM | 1 to 10 nM | 1 to 10 nM
9 | CNc1cc(Nc2cccn(-c3ccc(C(=O)N4CCC(CN(C)C5CCN(c6ccc7c(c6)n(C)c(=O)n7C6CCC(=O)NC6=O)CC5)C4)cn3)c2=O)nn2c(C(=O)N[C@@H]3C[C@@H]3F)cnc12 (stereo partly drawn) [Example K445] | > 100 nM | < 1 nM | > 100 nM
10 | CNc1cc(Nc2cccn(-c3ccc(C(=O)N4CCC(N(C)CC5CCN(c6ccc(-c7ccc8c(c7)n(C)c(=O)n8C7CCC(=O)NC7=O)cc6)C5)CC4)cn3)c2=O)nn2c(C(=O)N[C@@H]3C[C@@H]3F)cnc12 (stereo partly drawn) [Example K446] | > 100 nM | < 1 nM | > 100 nM
11 | CNc1cc(Nc2cccn(-c3ccc(C(=O)NC4CCC(CN(C)CC5CCN(Cc6ccc7c(c6)n(C)c(=O)n7C6CCC(=O)NC6=O)CC5)CC4)cn3)c2=O)nn2c(C(=O)N[C@@H]3C[C@@H]3F)cnc12 (stereo partly drawn) [Example K447] | > 100 nM | < 1 nM | > 100 nM
12 | CNc1cc(Nc2cccn(-c3ccc(C(=O)N[C@H]4CC[C@H](CN(C)C5CCN(Cc6cccc7c6n(C)c(=O)n7C6CCC(=O)NC6=O)CC5)CC4)cn3)c2=O)nn2c(C(=O)N[C@@H]3C[C@@H]3F)cnc12 (stereo partly drawn) [Example K449] | > 100 nM | < 1 nM | > 100 nM
13 | CNc1cc(Nc2cccn(-c3ccc(C(=O)N4CC(CN5CCC(c6cccc7c6n(C)c(=O)n7C6CCC(=O)NC6=O)CC5)C4)cn3)c2=O)nn2c(C(=O)N[C@@H]3C[C@@H]3F)cnc12 (stereo partly drawn) [Example K450] | > 100 nM | < 1 nM | > 100 nM
14 | CNc1cc(Nc2cccn(-c3ccc(C(=O)N4CCC(CN5CCCC(c6cccc7c6n(C)c(=O)n7C6CCC(=O)NC6=O)C5)CC4)cn3)c2=O)nn2c(C(=O)N[C@@H]3C[C@@H]3F)cnc12 (stereo partly drawn) [Example K451] | > 100 nM | < 1 nM | > 100 nM

Next, values leading:

Row | DC50 (TYK2 [1]) | DC50 (TYK2 [2]) | DC50 (TYK2 [3]) | SMILES
15 | > 100 nM | > 100 nM | > 100 nM | Cn1c(=O)n(C2CCC(=O)NC2=O)c2cccc(N3CCC4(CC3)CN(Cc3ccc(-c5cccc(Nc6ccc7ncc(C(=O)NC8CC8)n7n6)c5)nc3)C4)c21 (stereo not drawn) [Example K452]
16 | < 1 nM | < 1 nM | > 100 nM | CNc1cc(Nc2cccn(-c3ccc(C(=O)N4CCC(N5CCC(N6CCN(c7ccc8c(c7)n(C)c(=O)n8C7CCC(=O)NC7=O)CC6)CC5)CC4)cn3)c2=O)nn2c(C(=O)N[C@@H]3C[C@@H]3F)cnc12 (stereo partly drawn) [Example K453]
17 | < 1 nM | < 1 nM | > 100 nM | CNc1cc(Nc2cccn(-c3ccc(CN4CCN([C@H]5CC[C@H](c6ccc(-c7ccc8c(c7)n(C)c(=O)n8C7CCC(=O)NC7=O)cc6)CC5)CC4)cn3)c2=O)nn2c(C(=O)N[C@@H]3C[C@@H]3F)cnc12 (stereo partly drawn) [Example K454]
18 | < 1 nM | < 1 nM | > 100 nM | CNc1cc(Nc2cccc(-c3ccc(CN4CCN(c5ccc(-c6ccc7c(c6)n(C)c(=O)n7C6CCC(=O)NC6=O)cn5)C(=O)C4)cn3)c2)nn2c(C(=O)N[C@@H]3C[C@@H]3F)cnc12 (stereo partly drawn) [Example K455]
19 | > 100 nM | > 100 nM | > 100 nM | Cn1c(=O)n(C2CCC(=O)NC2=O)c2ccc(-c3ccc(N4CCN(Cc5ccc(-c6cccc(Oc7ccc8ncc(C(=O)NC9CC9)n8n7)c6)nc5)CC4)cc3)cc21 (stereo not drawn) [Example K456]
20 | > 100 nM | < 1 nM | > 100 nM | CNc1cc(Nc2cccn(-c3ccc(CN4CCN(c5ccc(-c6ccc7c(c6)n(C)c(=O)n7C6CCC(=O)NC6=O)cn5)C(=O)C4)cn3)c2=O)nn2c(C(=O)N[C@@H]3C[C@@H]3F)cnc12 (stereo partly drawn) [Example K457]
21 | > 100 nM | > 100 nM | > 100 nM | Cn1c(=O)n(C2CCC(=O)NC2=O)c2ccc(-c3ccc(N4CCN(Cc5ccc(-c6cccc(Nc7ccc8ncc(C(=O)NC9CC9)n8n7)c6)nc5)CC4=O)nc3)cc21 (stereo not drawn) [Example K459]
22 | > 100 nM | < 1 nM | > 100 nM | CNc1cc(Nc2cccc(-c3ccc(CN4CCN(c5cccc6c5n(C)c(=O)n6C5CCC(=O)NC5=O)CC4)cn3)c2)nn2c(C(=O)N[C@@H]3C[C@@H]3F)cnc12 (stereo partly drawn) [Example K460]
23 | > 100 nM | 1 to 10 nM | > 100 nM | CNc1cc(Nc2cccc(-c3ccc(CNCc4ccc(N5CCC(N6CCC(c7ccc8c(c7)n(C)c(=O)n8C7CCC(=O)NC7=O)C6)CC5)cc4)cn3)c2)nn2c(C(=O)N[C@@H]3C[C@@H]3F)cnc12 (stereo partly drawn) [Example K461]
24 | > 100 nM | 1 to 10 nM | > 100 nM | CNc1cc(Nc2cccn(-c3ccc(C(=O)N4CCC(N5CCC(N6CCN(c7cccc8c7n(C)c(=O)n8C7CCC(=O)NC7=O)CC6)CC5)CC4)cn3)c2=O)nn2c(C(=O)N[C@@H]3C[C@@H]3F)cnc12 (stereo partly drawn) [Example K462]
25 | > 100 nM | 1 to 10 nM | > 100 nM | CNc1cc(Nc2cccc(-c3ccc(CN4CCN(C5CCC(c6ccc(-c7ccc8c(c7)n(C)c(=O)n8C7CCC(=O)NC7=O)cc6)CC5)CC4)cn3)c2)nn2c(C(=O)N[C@@H]3C[C@@H]3F)cnc12 (stereo partly drawn) [Example K463]
26 | > 100 nM | 1 to 10 nM | > 100 nM | CNc1cc(Nc2cccc(-c3ccc(CN4CC5(CCN(c6cccc7c6n(C)c(=O)n7C6CCC(=O)NC6=O)CC5)C4)cn3)c2)nn2c(C(=O)N[C@@H]3C[C@@H]3F)cnc12 (stereo partly drawn) [Example K464]
27 | > 100 nM | 1 to 10 nM | > 100 nM | CNc1cc(Nc2cccc(N3CCC(CN4CCC(C#Cc5cccc6c5n(C)c(=O)n6C5CCC(=O)NC5=O)CC4)CC3)c2)nn2c(C(=O)N[C@@H]3C[C@@H]3F)cnc12 (stereo partly drawn) [Example K465]
28 | < 1 nM | > 100 nM | > 100 nM | CNc1cc(Nc2cccc(N3CCN(CC4CCN(c5ccc(-c6ccc7c(c6)n(C)c(=O)n7C6CCC(=O)NC6=O)cc5)CC4)CC3)c2)nn2c(C(=O)N[C@@H]3C[C@@H]3F)cnc12 (stereo partly drawn) [Example K466]
29 | 10 to 100 nM | > 100 nM | > 100 nM | CNc1cc(Nc2cccc(-c3ccc(CN4CCN(c5cccc6c(N7CCC(=O)NC7=O)cncc56)CC4)cn3)c2)nn2c(C(=O)N[C@@H]3C[C@@H]3F)cnc12 [Example K467]
30 | > 100 nM | > 100 nM | 10 to 100 nM | O=C1CCN(c2cnc3cc(CCOCCOCCOCCOCCNc4cc(Nc5cccn(-c6ccccn6)c5=O)nn5c(C(=O)N[C@@H]6C[C@@H]6F)cnc45)ccn23)C(=O)N1 [Example K468]
31 | < 1 nM | < 1 nM | > 100 nM | CNc1cc(Nc2cccc(-c3ccc(CN4CCN(c5ccc(-c6ccc7c(c6)n(C)c(=O)n7C6CCC(=O)NC6=O)cc5)CC4)cn3)c2OC)nn2c(C(=O)N[C@@H]3C[C@@H]3F)cnc12 (stereo partly drawn) [Example K479]
32 | > 100 nM | < 1 nM | > 100 nM | CNc1cc(-c2ccc(-c3ccc(CN4CCC(N5CC(N6CCN(c7ccc8c(c7)n(C)c(=O)n8C7CCC(=O)NC7=O)CC6)C5)CC4)cn3)cc2)nn2c(C(=O)N[C@@H]3C[C@@H]3F)cnc12 (stereo partly drawn) [Example K480]
33 | > 100 nM | > 100 nM | > 100 nM | CNc1cc(N(C)c2cccc(-c3ccc(CN4CCN(c5ccc(-c6ccc7c(c6)n(C)c(=O)n7C6CCC(=O)NC6=O)cc5)CC4)cn3)c2)nn2c(C(=O)N[C@@H]3C[C@@H]3F)cnc12 (stereo partly drawn) [Example K481]
